Experimental data reported in ChEMBL document CHEMBL5143578, “Elucidation of structure-activity relationship of humulanolides and identification of humulanolide analog as a novel HSP90 inhibitor” (Bioorg Med Chem Lett, 2022).
Active and inactive are the calls of the source. No cut-off for these calls is given here.

What was measured:
A549 = experiment: Antiproliferative activity against human A549 cells incubated for 24 hrs by MTT assay; format: functional, cell-based; settings: A549, 24 h
HT-1080 [1] = experiment: Antiproliferative activity against human HT-1080 cells incubated for 24 hrs by MTT assay; format: functional, cell-based; settings: HT-1080, 24 h
PC-3 = experiment: Antiproliferative activity against human PC-3 cells incubated for 24 hrs by MTT assay; format: functional, cell-based; settings: PC-3, 24 h
HeLa = experiment: Antiproliferative activity against human HeLa cells incubated for 24 hrs by MTT assay; format: functional, cell-based
SK-MEL-28 = experiment: Antiproliferative activity against human SK-MEL-28 cells incubated for 24 hrs by MTT assay; format: functional, cell-based; settings: SK-MEL-28, 24 h
CHL-1 = experiment: Antiproliferative activity against human CHL-1 cells incubated for 24 hrs by MTT assay; format: functional, cell-based; settings: CHL-1, 24 h
HCT-116 = experiment: Antiproliferative activity against human HCT-116 cells incubated for 24 hrs by MTT assay; format: functional, cell-based; settings: HCT-116, 24 h
Ca9-22 = experiment: Antiproliferative activity against human Ca9-22 cells incubated for 24 hrs by MTT assay; format: functional, cell-based; settings: Ca9-22, 24 h
HT-1080 [2] = experiment: Induction of cell morphological changes in human HT-1080 cells at 20 uM incubated for 24 hrs by phase contrast microscopic analysis; format: functional, cell-based
[3] = biological target: T1, Heat shock protein HSP90 (Homo sapiens) (UniProt P07900+P08238); experiment: Inhibition of HSP90 in human HT-1080 cells assessed as downregulation of CDK4 protein expression measured after 24 hrs by Western blot analysis; format: cell-based; settings: dose 3-30 µM
[4] = biological target: T1, Heat shock protein HSP90 (Homo sapiens); experiment: Inhibition of HSP90 in human HT-1080 cells assessed as decrease in CDK4 protein level by measuring half-life of CDK4 protein at 20 uM measured upto 24 hrs in the presence of cycloheximide by Western blotting analysis; format: cell-based
[5] = biological target: T1, Heat shock protein HSP90 (Homo sapiens); experiment: Inhibition of HSP90 in human HT-1080 cells assessed as upregulation of HSP70 protein expression measured after 24 hrs by Western blot analysis; format: cell-based; settings: dose 3-30 µM
[6] = biological target: T1, Heat shock protein HSP90 (Homo sapiens); experiment: Inhibition of HSP90 in human HT-1080 cells assessed as downregulation of Akt protein expression measured after 24 hrs by Western blot analysis; format: cell-based; settings: dose 3-30 µM
HT-1080 [7] = experiment: Upregulation of HSP70 protein expression in human HT-1080 cells by Western blotting analysis; format: functional, cell-based
HT-1080 [8] = experiment: Induction of cell morphological changes in human HT-1080 cells at 10 uM incubated for 24 hrs by phase contrast microscopic analysis; format: functional, cell-based

Row | Compound | IC50 (A549) [µM] | IC50 (HT-1080 [1]) [µM] | IC50 (PC-3) [µM] | IC50 (HeLa) [µM] | IC50 (SK-MEL-28) [µM] | IC50 (HCT-116) [µM] | inhibition [3] | T1/2 [4] [h] | inhibition [5] | inhibition [6] | IC50 (CHL-1) [µM] | IC50 (Ca9-22) [µM] | Activity (HT-1080 [2]) | Activity (HT-1080 [7]) | Activity (HT-1080 [8])
1 | COC1=C2C[C@@H](C)C[C@H](OC)[C@H](O)[C@@H](C)/C=C(\C)[C@H](OC(N)=O)[C@@H](OC)/C=C\C=C(/C)C(=O)NC(=CC1=O)C2=O | – | – | – | – | – | – | – | – | – | – | – | – | – | – | Active
2 | C/C1=C\CCC2=C[C@H](OC2=O)C(C)(C)/C=C/[C@@H]1O | > 10 | > 10 | > 10 | > 10 | > 10 | > 10 | – | – | – | – | > 10 | > 10 | – | – | –
3 | C/C1=C/CC[C@@H]2C(=O)O[C@H]3[C@@H]2C(=CC3(C)C)C1=O | > 10 | > 10 | > 10 | > 10 | > 10 | > 10 | – | – | – | – | > 10 | > 10 | – | – | –
4 | CC1(C)[C@H]2[C@H]3[C@@H]1OC(=O)C31CC[C@@H]3O[C@]3(C)C(=O)[C@H]21 (some centres undefined) | > 10 | > 10 | > 10 | > 10 | > 10 | > 10 | – | – | – | – | > 10 | > 10 | – | – | –
5 | CC1=CCCC23C(=O)O[C@H]4[C@@H]2[C@@H]([C@H]3C1=O)C4(C)C (some centres undefined) | > 10 | > 10 | > 10 | > 10 | > 10 | > 10 | – | – | – | – | > 10 | > 10 | – | – | –
6 | C/C1=C/CCC23C(=O)O[C@H]4[C@@H]2[C@@H](C1=O)[C@@H]3C4(C)C | > 10 | > 10 | > 10 | > 10 | > 10 | > 10 | – | – | – | – | > 10 | > 10 | – | – | –

Continued, in another order:

Row | IC50 (A549) [µM] | IC50 (HT-1080 [1]) [µM] | IC50 (PC-3) [µM] | IC50 (HeLa) [µM] | IC50 (SK-MEL-28) [µM] | IC50 (HCT-116) [µM] | inhibition [3] | T1/2 [4] [h] | inhibition [5] | inhibition [6] | Compound | IC50 (CHL-1) [µM] | IC50 (Ca9-22) [µM] | Activity (HT-1080 [2]) | Activity (HT-1080 [7]) | Activity (HT-1080 [8])
7 | > 10 | > 10 | > 10 | > 10 | > 10 | > 10 | – | – | – | – | CC1(C)/C=C/C(=O)[C@@]2(C)O[C@@H]2CCC2=C[C@@H]1OC2=O | > 10 | > 10 | – | – | –
8 | > 10 | > 10 | > 10 | > 10 | > 10 | > 10 | – | – | – | – | C/C1=C/CCC2=C[C@H](OC2=O)C(C)(C)/C=C\C1=O | > 10 | 9.89 | – | – | –
9 | 3.02 | 6.54 | 1.81 | 4.78 | 3.43 | 1.22 | Active | 8 | Active | Active | CC1(C)/C=C/C(=O)[C@@]2(C)O[C@H]2CCC2=C[C@@H]1OC2=O | 3.63 | 2.94 | Active | – | –
10 | > 10 | > 10 | > 10 | > 10 | > 10 | > 10 | – | – | – | – | CC1(C)/C=C/[C@H](O)[C@@]2(C)O[C@@H]2CCC2=C[C@@H]1OC2=O | > 10 | > 10 | – | – | –
11 | 6.62 | 8.17 | 2.65 | 8.19 | > 10 | 9.82 | – | – | – | – | C/C1=C/CCC2=C[C@H](OC2=O)C(C)(C)/C=C/C1=O | > 10 | 7.52 | – | Active | –
12 | 5.51 | 5.31 | 3.13 | 8.64 | 5.26 | 6.59 | – | – | – | – | C/C1=C\CCC2=C[C@H](OC2=O)C(C)(C)/C=C/C1=O | 4.71 | 4.79 | – | Active | –
13 | > 10 | > 10 | > 10 | > 10 | > 10 | > 10 | – | – | – | – | CC1(C)/C=C/[C@H](O)[C@@]2(C)O[C@H]2CCC2=C[C@@H]1OC2=O | > 10 | > 10 | – | – | –
